{
  "source": "patent US9856304B2",
  "about": "“Peptide and application thereof” (Saitama Medical University, priority 2013, dated 2018)",
  "key": {"[1]": {"system": "human iPS cells (253G1 cells)", "experiment": "Differentiation induction of human iPS cells into pancreatic hormone-producing cells (1), quantitative RT-PCR", "assay_type": "cell-based", "settings": "3 nM betagenin in step (D2), 11 days, vs DMSO control, Day 10 cells taken as 1, FIG. 2", "description": "As human iPS cells, used were 253G1 cells purchased from the cell bank at RIKEN, TIG3/KOSM cells provided by Dr. Mitani at Saitama Medical University, 200-9 cells, a clone in which a reporter gene is introduced into TIG3/KOSM cells. TIG3/KOSM cells were established at The National Institute of Advanced Industrial Science and Technology by introducing 4 factors (the OCT gene, the KLF gene, the SOX gene, the MYC gene) into TIG-3 cells using Sendai virus (Nishimura, K. et al., J. Biol. Chem., 286, pp. 4760-4771 (2011)).\nThese cells were cultured/maintained in an ES cell culture medium (DMEM/ham F12, 20% KSR, nonessential amino acid, 2 mM L-glutamine, 0.1 mM 2-mercaptoethanol, 5.2 mM NaOH) with added 4 ng/mL FGF-2 (Global Stem) and penicillin/streptomycin (Nacalai Tesque, Inc.) along with SNL76/7 cells (DS Pharma Biomedical) treated with mitomycin-C. […]\nThe gene expression of insulin was confirmed by quantitative RT-PCR for the cells (n=2 for each of the betagenin addition group and the control group) obtained from 253G1 cells via the above steps (A2) to (D2). Specifically, total RNA was first extracted from the cells using a SV Total RNA Isolation System (Promega), and reverse transcription reactions were performed with BioScript™ transcriptase (Bioline), and then quantitative PCR analysis was performed using SYBR™ Green PCR Master Mix (Applied Biosystems). […]"}, "[2]": {"system": "MIN6 cells (pancreatic β cell line)", "experiment": "EdU cell proliferation assay, growth promotion of pancreatic β cells (2), versus culture supernatants", "assay_type": "cell-based", "settings": "betagenin 1 nM, compared with IBCAP culture supernatant and Mock culture supernatant (0.5 μL/well), Mock taken as 1.0, FIG. 4", "method": "MIN6 cells provided by Dr. Miyazaki at Osaka University were used as a pancreatic β cell line. MIN6 cells were maintained in a DMEM culture medium with added 15% (v/v) of FBS.\nA DMSO solution was prepared so that the concentration of chemically synthesized betagenin was 97% of purity, as a pancreatic hormone-producing cell growth-promoting agent.\nFirst, HEK293T cells passaged in a DMEM culture medium with added 5% FBS and antibiotics (penicillin 100 U/mL, streptomycin […]) were plated on a 10 cm dish at 1×10^6 cells. On the next day, HEK293T cells were transfected with an expression vector (pCAGGS-IBCAP) constructed by ligating the gene encoding the IBCAP (=Betagenin) set forth in SEQ ID NO: 2 (which is corresponds to human TM4SF20, and hereinafter referred to “IBCAP.”) using FuGEN6 (Roche) to overexpression of IBCAP. The culture medium was replaced with an Opti-MEM culture medium 24 hours after that, and a culture supernatant was then collected another 24 hours after that, which was then used as an IBCAP culture supernatant for the subsequent experiments. […]\nThe incorporated EdU was visualized as red fluorescence using Alexa Flour™ 594, and observed with a fluorescence microscope (Carl Zeiss)."}},
  "data": [
    {"substance": "betagenin: chemically synthesized peptide of SEQ ID NO: 1, fragment of human TM4SF20 from Position 170 to Position 229 (WRASSFHFDSEENKHRLIHFSVFLGLLLVGILEVLFGLSQIVIGFLGCLCGVSKRRSQIV; Peptide Sequence betagenin; listed as Homo sapiens)", "values": [
      {"measurement": "amount of insulin expression (relative)", "setting": "[1]", "value": "increased"},
      {"measurement": "relative EdU fluorescence intensity", "setting": "[2]", "value": "significantly increased"}
    ]}
  ]
}
